From publication PMC9649518, “Knockout of ABC transporters by CRISPR/Cas9 contributes to reliable and accurate transporter substrate identification for drug discovery” (Frontiers in Pharmacology, 2022)
Blank lines part the entries; values can stand above or below the compound they belong to.

Key:
[1] = system: Caco-2 WT cells; experiment: Bidirectional transport assay across Caco-2 WT monolayers; details: WT Caco-2, 5 μM substrate, n = 3; for Efflux ratio: Papp(B-to-A)/Papp(A-to-B)
Method: (§4) For MRP2, the nonfluorescent compound CDCFDA was used as the probe substrate. […] After treatment, samples were transferred to black-walled 96-well assay plates. A standard curve of 2-fold serial dilution from 10 µM CDCF was generated. The CDCF concentration was measured based on the fluorescence in a microplate fluorescence reader (Tecan, Switzerland) set at 485 nm and 530 nm for the excitation and emission wavelengths, respectively.

[2] = system: Caco^Pgp−/− cells; experiment: Bidirectional transport assay across P-gp KO Caco-2 monolayers; details: Caco^Pgp−/−, 5 μM substrate, n = 3
[3] = system: Caco^BCRP−/− cells; experiment: Bidirectional transport assay across BCRP KO Caco-2 monolayers; details: Caco^BCRP−/−, 5 μM substrate, n = 3
Method: as §4

[4] = system: Caco^MRP2−/− cells; experiment: Bidirectional transport assay across MRP2 KO Caco-2 monolayers; details: Caco^MRP2−/−, 5 μM substrate, n = 3
Method: as §4

[5] = system: Caco^Pgp−/−BCRP−/− cells; experiment: Bidirectional transport assay across P-gp/BCRP double KO Caco-2 monolayers; details: Caco^Pgp−/−BCRP−/−, 5 μM substrate, n = 3
Method: as §4

[6] = system: Caco^Pgp−/−MRP2−/− cells; experiment: Bidirectional transport assay across P-gp/MRP2 double KO Caco-2 monolayers; details: Caco^Pgp−/−MRP2−/−, 5 μM substrate, n = 3
Method: as §4

[7] = system: Caco^MRP2−/−BCRP−/− cells; experiment: Bidirectional transport assay across MRP2/BCRP double KO Caco-2 monolayers; details: Caco^MRP2−/−BCRP−/−, 5 μM substrate, n = 3
Method: as §4

[8] = system: BCRP single- and double-KO Caco-2 cell lines; experiment: Bidirectional transport assay, BCRP single- and double-KO cell lines taken together; details: 5 μM substrate
[9] = system: MRP2 single- and double-KO Caco-2 cell lines; experiment: Bidirectional transport assay, MRP2 single- and double-KO cell lines taken together; details: 5 μM substrate
Method: For MRP2, the nonfluorescent compound CDCFDA was used as the probe substrate. This compound passively diffuses into cells and is hydrolyzed by intracellular esterases to the fluorescent product, CDCF, which is then rapidly excreted by MRP2 ([Sampson et al., 2015]). After treatment, samples were transferred to black-walled 96-well assay plates. A standard curve of 2-fold serial dilution from 10 µM CDCF was generated. The CDCF concentration was measured based on the fluorescence in a microplate fluorescence reader (Tecan, Switzerland) set at 485 nm and 530 nm for the excitation and emission wavelengths, respectively.

[10] = Bidirectional transport assay, P-gp single- and double-KO cells taken together; type: in vitro ADME; details: human, pH 7.4, 5 μM substrate
Method: (§1) The medium was replaced every second day.
(§2) All these studies were conducted by following similar procedures. […] Then, HBSS was aspirated from both sides.
(§3) The flow rate was 0.3 mL/min.

[11] = target: T1, P-gp, BCRP, and MRP2 efflux transporters (Homo sapiens, UniProt Q92887); experiment: Transporter substrate identification with the panel of WT and KO Caco-2 cells; type: in vitro ADME; details: 5 μM
T1 construct: endogenous in cells; host or cells: Caco-2 WT and CRISPR/Cas9 transporter-knockout Caco-2 clones
Method: as §1, §2, §3

[12] = system: P-gp, BCRP, and MRP2 efflux transporters; experiment: as above; type: in vitro ADME, human; details: 5 μM; ER ≥ 2 suggests active transport
Method: as §1, §2, §3

[13] = Bidirectional transport assay across Caco-2 WT monolayers; details: human
Method: as §4

[14] = Bidirectional transport assay across P-gp KO Caco-2 monolayers; details: human, pH 7.4
[15] = Bidirectional transport assay across BCRP KO Caco-2 monolayers; details: human
Method: as §4

[16] = Bidirectional transport assay across MRP2 KO Caco-2 monolayers; details: human
Method: as §4

[17] = Bidirectional transport assay across P-gp/BCRP double KO Caco-2 monolayers; details: human, pH 7.4
Method: as §4

[18] = Bidirectional transport assay across P-gp/MRP2 double KO Caco-2 monolayers; details: human, pH 7.4
Method: as §4

[19] = Bidirectional transport assay across MRP2/BCRP double KO Caco-2 monolayers; details: human
Method: as §4

[20] = system: BCRP transporter; parameters: method as in Mease et al., 2012; details: 1 µM inhibitor; Caco-2; ref Mease et al., 2012; cited from earlier work
[21] = system: P-gp; parameters: method as in Mease et al., 2012; details: 10 µM inhibitor; Caco-2; ref Mease et al., 2012; cited from earlier work

T1 sequence (Q92887 whole entry): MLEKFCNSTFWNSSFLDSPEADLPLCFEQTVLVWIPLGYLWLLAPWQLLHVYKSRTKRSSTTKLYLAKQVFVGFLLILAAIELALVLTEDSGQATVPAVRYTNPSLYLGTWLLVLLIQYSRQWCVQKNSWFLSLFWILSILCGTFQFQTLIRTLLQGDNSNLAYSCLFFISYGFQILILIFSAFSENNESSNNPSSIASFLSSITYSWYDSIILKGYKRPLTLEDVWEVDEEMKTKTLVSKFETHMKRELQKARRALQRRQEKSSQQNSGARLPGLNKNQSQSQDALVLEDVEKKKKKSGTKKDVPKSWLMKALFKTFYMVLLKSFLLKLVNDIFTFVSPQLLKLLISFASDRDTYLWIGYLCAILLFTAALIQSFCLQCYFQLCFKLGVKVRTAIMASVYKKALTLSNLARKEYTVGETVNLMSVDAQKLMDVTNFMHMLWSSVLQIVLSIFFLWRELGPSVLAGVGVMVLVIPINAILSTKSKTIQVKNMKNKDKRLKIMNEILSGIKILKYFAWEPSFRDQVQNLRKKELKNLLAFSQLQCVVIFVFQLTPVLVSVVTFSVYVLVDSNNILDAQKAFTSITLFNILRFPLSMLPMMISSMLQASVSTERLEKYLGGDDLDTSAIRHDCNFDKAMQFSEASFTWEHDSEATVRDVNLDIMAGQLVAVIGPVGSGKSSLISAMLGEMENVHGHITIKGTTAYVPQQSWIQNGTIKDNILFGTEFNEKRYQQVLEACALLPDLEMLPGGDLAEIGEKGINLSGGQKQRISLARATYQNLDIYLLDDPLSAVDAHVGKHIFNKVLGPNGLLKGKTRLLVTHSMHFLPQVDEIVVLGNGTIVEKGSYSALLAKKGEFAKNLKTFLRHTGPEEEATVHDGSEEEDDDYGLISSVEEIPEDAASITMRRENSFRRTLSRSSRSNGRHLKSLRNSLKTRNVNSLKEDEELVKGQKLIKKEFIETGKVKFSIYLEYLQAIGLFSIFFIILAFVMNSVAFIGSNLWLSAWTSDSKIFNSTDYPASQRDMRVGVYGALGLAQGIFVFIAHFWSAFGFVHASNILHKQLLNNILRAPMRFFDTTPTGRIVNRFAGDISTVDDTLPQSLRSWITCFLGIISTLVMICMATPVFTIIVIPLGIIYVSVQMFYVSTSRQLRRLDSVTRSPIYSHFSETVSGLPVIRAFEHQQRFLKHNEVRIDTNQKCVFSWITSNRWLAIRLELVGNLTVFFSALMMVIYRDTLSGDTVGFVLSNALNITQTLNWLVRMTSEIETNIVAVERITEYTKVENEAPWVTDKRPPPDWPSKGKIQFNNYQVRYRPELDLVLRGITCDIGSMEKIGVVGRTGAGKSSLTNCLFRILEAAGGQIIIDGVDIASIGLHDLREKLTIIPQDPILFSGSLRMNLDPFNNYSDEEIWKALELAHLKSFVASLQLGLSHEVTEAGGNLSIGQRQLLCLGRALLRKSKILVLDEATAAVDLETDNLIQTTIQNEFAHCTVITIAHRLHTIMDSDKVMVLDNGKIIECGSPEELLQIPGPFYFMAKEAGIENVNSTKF

Papp A-to-B ([1]; 1 h, 37°C, HBSS pH 7.4): 0.67 ± 0.12 ×10^−6cm/s | Papp B-to-A ([1]; 1 h, 37°C, HBSS pH 7.4): 10.87 ± 0.20 ×10^−6cm/s | Efflux ratio [1]: 16.65 ± 2.90 | Efflux ratio ([1]; listed as E3S): 16.6 | Papp A-to-B ([2]; 1 h, 37°C, HBSS pH 7.4): 1.53 ± 0.24 ×10^−6cm/s | Papp B-to-A ([2]; 1 h, 37°C, HBSS pH 7.4): 22.48 ± 1.01 ×10^−6cm/s | Efflux ratio [2]: 14.90 ± 1.63 | Papp A-to-B ([3]; 1 h, 37°C, HBSS pH 7.4): 1.15 ± 0.11 ×10^−6cm/s | Papp B-to-A ([3]; 1 h, 37°C, HBSS pH 7.4): 1.58 ± 0.08 ×10^−6cm/s | Efflux ratio [3]: 1.36 ± 0.18 | Papp A-to-B ([4]; 1 h, 37°C, HBSS pH 7.4): 2.91 ± 0.32 ×10^−6cm/s | Papp B-to-A ([4]; 1 h, 37°C, HBSS pH 7.4): 15.32 ± 3.10 ×10^−6cm/s | Efflux ratio [4]: 5.24 ± 0.59 | Papp A-to-B ([5]; 1 h, 37°C, HBSS pH 7.4): 1.88 ± 0.02 ×10^−6cm/s | Papp B-to-A ([5]; 1 h, 37°C, HBSS pH 7.4): 1.54 ± 0.30 ×10^−6cm/s | Efflux ratio [5]: 0.820 ± 0.15 | Papp A-to-B ([6]; 1 h, 37°C, HBSS pH 7.4): 3.23 ± 0.08 ×10^−6cm/s | Papp B-to-A ([6]; 1 h, 37°C, HBSS pH 7.4): 25.34 ± 2.06 ×10^−6cm/s | Efflux ratio [6]: 7.830 ± 0.46 | Papp A-to-B ([7]; 1 h, 37°C, HBSS pH 7.4): 0.97 ± 0.04 ×10^−6cm/s | Papp B-to-A ([7]; 1 h, 37°C, HBSS pH 7.4): 0.92 ± 0.49 ×10^−6cm/s | Efflux ratio [7]: 0.96 ± 0.51 | Efflux ratio [8]: 0.8–1.3 | Efflux ratio compared with WT [9]: reduced significantly
SMILES: C[C@]12CC[C@@H]3c4ccc(OS(=O)(=O)O)cc4CC[C@H]3[C@@H]1CCC2=O [Estrone 3-Sulfate, estrone 3-sulfate]

efflux ratio at 1 h, 5 μM [10]: ~1 | Substrate of MRP2 (conclusion from ERs in KO cells) [11]: cannot mediate | Efflux transporter substrate identification (conclusion from ERs in WT and KO cells) [12]: P-gp was the main transporter | Papp A→B at 1 h, 5 μM ([13]; Caco-2, pH 7.4): 2.78 ± 0.39 ×10⁻⁶ cm/s | Papp B→A at 1 h, 5 μM ([13]; Caco-2, pH 7.4): 12.2 ± 1.86 ×10⁻⁶ cm/s | efflux ratio at 1 h, 5 μM ([13]; Caco-2, pH 7.4, Efflux ratio, WT Caco-2, 5 μM substrate, Papp(B-to-A)/Papp(A-to-B), n = 3): 4.47 ± 1.19 | Papp A→B at 1 h, 5 μM [14]: 4.17 ± 0.17 ×10⁻⁶ cm/s | Papp B→A at 1 h, 5 μM [14]: 2.18 ± 0.43 ×10⁻⁶ cm/s | efflux ratio at 1 h, 5 μM [14]: 0.41 ± 0.04 | Papp A→B at 1 h, 5 μM ([15]; pH 7.4): 2.21 ± 0.41 ×10⁻⁶ cm/s | Papp B→A at 1 h, 5 μM ([15]; pH 7.4): 4.88 ± 0.17 ×10⁻⁶ cm/s | efflux ratio at 1 h, 5 μM ([15]; pH 7.4, Efflux ratio, Caco^BCRP−/−, 5 μM substrate, n = 3): ~2 | Efflux ratio [3]: 2.25 ±0.34 | Papp B→A at 1 h, 5 μM ([16]; pH 7.4): 14.7 ± 0.99 ×10⁻⁶ cm/s | efflux ratio at 1 h, 5 μM ([16]; pH 7.4): 3.25 ± 0.31 | Papp A→B at 1 h, 5 μM ([16]; pH 7.4, Papp A-to-B, Caco^MRP2−/−, 5 μM substrate, 1 h, 37°C, HBSS pH 7.4, n = 3): 4.53 ± 0.26 ×10⁻⁶ cm/s | Papp A→B at 1 h, 5 μM [17]: 7.54 ± 0.24 ×10⁻⁶ cm/s | Papp B→A at 1 h, 5 μM [17]: 3.22 ± 0.62 ×10⁻⁶ cm/s | efflux ratio at 1 h, 5 μM [17]: 0.43 ± 0.09 | Papp A→B at 1 h, 5 μM [18]: 4.23 ± 0.22 ×10⁻⁶ cm/s | Papp B→A at 1 h, 5 μM [18]: 4.51 ± 0.63 ×10⁻⁶ cm/s | efflux ratio at 1 h, 5 μM [18]: 1.07 ± 0.42 | Papp B→A at 1 h, 5 μM ([19]; pH 7.4): 17.9 ± 1.89 ×10⁻⁶ cm/s | efflux ratio at 1 h, 5 μM ([19]; pH 7.4): 6.41 ± 0.35 | Papp A→B at 1 h, 5 μM ([19]; pH 7.4, Papp A-to-B, Caco^MRP2−/−BCRP−/−, 5 μM substrate, 1 h, 37°C, HBSS pH 7.4, n = 3): 2.79 ± 0.28 ×10⁻⁶ cm/s
SMILES: Cc1c(O)cccc1C(=O)N[C@@H](CSc1ccccc1)[C@H](O)CN1C[C@H]2CCCC[C@H]2C[C@H]1C(=O)NC(C)(C)C [Nelfinavir]

SMILES: COc1ccc2c3c([nH]c2c1)[C@H](C=C(C)C)N1C(=O)[C@@H]2CCCN2C(=O)[C@@H]1C3 [fumitremorgin C]
Inhibition of the BCRP transporter [20]: selectively inhibited | Inhibition of P-gp [21]: only partially inhibited
